Assay results published in publication PMC7468568 (Nature chemical biology, 2020).
≈ marks a conversion by molar mass, not a printed value.

Legend:
[1] = test system: brain NAE levels; test: Lipid measurements in mouse brain; format: in vivo
[2] = Hepatocyte clearance, human; format: in vitro ADME; settings: 1 μM
[3] = test system: DAGLα; test: Natural substrate-based fluorescence assay DAGLα; format: biochemical, human and mouse
[4] = Kinetic aqueous solubility; format: physicochemical; settings: phosphate buffer pH 6.5
[5] = target: T1, PLA2G4E (Homo sapiens, UniProt Q3MJ16); test: Gel-based ABPP, hPLA2G4E overexpressing membrane lysate; format: biochemical; settings: at 10 μM
T1 sequence (Q3MJ16 1-868): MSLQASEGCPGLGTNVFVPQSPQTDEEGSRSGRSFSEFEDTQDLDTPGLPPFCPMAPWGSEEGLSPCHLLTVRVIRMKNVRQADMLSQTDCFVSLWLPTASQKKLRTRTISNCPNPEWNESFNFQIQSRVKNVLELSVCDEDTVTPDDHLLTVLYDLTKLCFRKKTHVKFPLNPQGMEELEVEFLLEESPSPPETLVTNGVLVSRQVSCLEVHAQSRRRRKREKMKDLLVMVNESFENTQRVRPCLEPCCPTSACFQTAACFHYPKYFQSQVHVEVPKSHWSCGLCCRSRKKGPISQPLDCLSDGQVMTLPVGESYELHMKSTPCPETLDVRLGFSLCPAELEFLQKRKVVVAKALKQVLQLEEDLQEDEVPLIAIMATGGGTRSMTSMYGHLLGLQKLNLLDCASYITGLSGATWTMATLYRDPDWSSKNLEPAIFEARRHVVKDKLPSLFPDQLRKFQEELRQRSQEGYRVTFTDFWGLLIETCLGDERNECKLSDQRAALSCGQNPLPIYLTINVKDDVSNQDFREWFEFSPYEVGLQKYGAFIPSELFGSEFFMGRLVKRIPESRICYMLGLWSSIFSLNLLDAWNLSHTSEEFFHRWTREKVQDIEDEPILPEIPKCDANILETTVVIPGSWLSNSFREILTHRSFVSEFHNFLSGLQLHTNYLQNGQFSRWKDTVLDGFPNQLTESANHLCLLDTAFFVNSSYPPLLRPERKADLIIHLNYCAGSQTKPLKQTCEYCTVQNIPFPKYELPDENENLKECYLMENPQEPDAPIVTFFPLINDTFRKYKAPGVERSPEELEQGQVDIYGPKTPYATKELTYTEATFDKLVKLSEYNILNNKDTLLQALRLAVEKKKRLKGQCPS

[6] = logD-assay; format: physicochemical; settings: octanol/water
[7] = Plasma protein binding, mouse; format: in vitro ADME; settings: equilibrium dialysis
[8] = test system: Neuro-2a cells; test: Targeted lipidomics in Neuro-2a cells; format: cell-based, mouse; settings: 10 μM, 2 h
[9] = test system: Neuro-2a cells; test: Live cell count with trypan blue; format: cell-based, mouse; settings: 10 μM, 2 h
[10] = target: cannabinoid CB2 receptor (Homo sapiens, UniProt P34972); test: [3H]CP55940 radioligand displacement assay CB2; format: binding; settings: at 10 μM
[11] = target: protein targets of photoprobe 10 in hNAPE-PLD-FLAG-transfected HEK293T cells (Homo sapiens, UniProt Q6IQ20); test: Chemical proteomics-based photoaffinity labeling; format: cell-based; settings: photoprobe 10 2 μM versus LEI-401 20 μM
[12] = Hepatocyte clearance, mouse; format: in vitro ADME; settings: 1 μM
[13] = target: mouse PGP-transporter (Mus musculus, UniProt P21447); test: P-glycoprotein active efflux assay, mouse; format: in vitro ADME
[14] = target: human PGP-transporter (Homo sapiens, UniProt P08183); test: P-glycoprotein active efflux assay, human; format: in vitro ADME
[15] = test system: DAGLα/β, MAGL and ABHD6; test: In vitro ABPP of brain of LEI-401-treated mice; format: in vivo, mouse; settings: male C57BL/6J mice; 30 mg kg^−1 i.p.; 2 h; ABPP of brain membrane lysate
[16] = target: T2, human MAGL (Homo sapiens, UniProt Q99685); test: Natural substrate-based fluorescence assay MAGL; format: biochemical
T2 sequence (Q99685 1-303): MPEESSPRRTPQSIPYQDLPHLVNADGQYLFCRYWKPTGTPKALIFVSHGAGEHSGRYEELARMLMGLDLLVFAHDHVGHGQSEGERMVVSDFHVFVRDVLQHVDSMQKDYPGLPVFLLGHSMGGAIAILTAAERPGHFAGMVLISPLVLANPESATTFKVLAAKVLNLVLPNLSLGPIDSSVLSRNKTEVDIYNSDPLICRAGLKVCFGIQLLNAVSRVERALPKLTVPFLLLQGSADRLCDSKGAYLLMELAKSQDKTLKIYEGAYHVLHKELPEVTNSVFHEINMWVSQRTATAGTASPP

[17] = test system: c-Fos protein expression in the paraventricular nucleus (PVN); test: HPA axis activation: c-Fos labeling in the PVN; format: in vivo, mouse; settings: for c-Fos protein expression in PVN: C57BL/6J mice
[18] = Microsomal clearance, mouse; format: in vitro ADME; settings: 1 μM
[19] = Microsomal clearance, human; format: in vitro ADME; settings: 1 μM
[20] = target: T3, NAPE-PLD (Mus musculus, UniProt Q8BH82); test: LC-MS-based endogenous NAPE-PLD activity assay; format: biochemical
T3 sequence (Q8BH82 1-396): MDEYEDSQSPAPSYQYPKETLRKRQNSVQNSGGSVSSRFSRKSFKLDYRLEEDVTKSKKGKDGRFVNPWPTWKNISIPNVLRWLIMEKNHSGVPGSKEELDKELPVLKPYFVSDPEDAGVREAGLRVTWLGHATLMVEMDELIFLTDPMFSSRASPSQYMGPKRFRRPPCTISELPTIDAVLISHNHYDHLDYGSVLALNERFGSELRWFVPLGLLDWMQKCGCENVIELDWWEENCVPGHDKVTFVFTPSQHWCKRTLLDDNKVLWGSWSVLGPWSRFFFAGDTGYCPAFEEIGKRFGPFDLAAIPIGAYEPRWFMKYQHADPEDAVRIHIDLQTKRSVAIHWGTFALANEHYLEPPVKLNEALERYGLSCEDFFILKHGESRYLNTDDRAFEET

[21] = target: T4, FAAH (Mus musculus, UniProt O08914); test: Gel-based ABPP, mouse brain membrane proteome; format: biochemical; settings: at 10 μM
T4 sequence (O08914 1-579): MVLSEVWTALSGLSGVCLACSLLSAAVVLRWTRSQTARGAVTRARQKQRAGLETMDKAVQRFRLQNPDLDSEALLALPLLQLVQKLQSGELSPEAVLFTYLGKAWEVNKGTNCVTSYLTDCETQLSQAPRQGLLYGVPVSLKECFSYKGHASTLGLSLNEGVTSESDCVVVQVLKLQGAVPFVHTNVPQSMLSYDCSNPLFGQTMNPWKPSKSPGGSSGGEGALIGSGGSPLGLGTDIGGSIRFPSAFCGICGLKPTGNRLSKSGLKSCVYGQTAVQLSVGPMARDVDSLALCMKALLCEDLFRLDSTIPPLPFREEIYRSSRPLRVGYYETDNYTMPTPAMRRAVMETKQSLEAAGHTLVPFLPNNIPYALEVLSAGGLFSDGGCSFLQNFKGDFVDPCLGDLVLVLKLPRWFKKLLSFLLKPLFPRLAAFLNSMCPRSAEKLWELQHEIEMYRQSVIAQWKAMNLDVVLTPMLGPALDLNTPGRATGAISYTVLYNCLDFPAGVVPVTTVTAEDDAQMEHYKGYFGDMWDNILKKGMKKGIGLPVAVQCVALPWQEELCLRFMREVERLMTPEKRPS

[22] = target: T5, mDAGLβ (Mus musculus, UniProt Q91WC9); test: Surrogate substrate-based fluorescence assay DAGLβ; format: biochemical
T5 sequence (Q91WC9 1-669): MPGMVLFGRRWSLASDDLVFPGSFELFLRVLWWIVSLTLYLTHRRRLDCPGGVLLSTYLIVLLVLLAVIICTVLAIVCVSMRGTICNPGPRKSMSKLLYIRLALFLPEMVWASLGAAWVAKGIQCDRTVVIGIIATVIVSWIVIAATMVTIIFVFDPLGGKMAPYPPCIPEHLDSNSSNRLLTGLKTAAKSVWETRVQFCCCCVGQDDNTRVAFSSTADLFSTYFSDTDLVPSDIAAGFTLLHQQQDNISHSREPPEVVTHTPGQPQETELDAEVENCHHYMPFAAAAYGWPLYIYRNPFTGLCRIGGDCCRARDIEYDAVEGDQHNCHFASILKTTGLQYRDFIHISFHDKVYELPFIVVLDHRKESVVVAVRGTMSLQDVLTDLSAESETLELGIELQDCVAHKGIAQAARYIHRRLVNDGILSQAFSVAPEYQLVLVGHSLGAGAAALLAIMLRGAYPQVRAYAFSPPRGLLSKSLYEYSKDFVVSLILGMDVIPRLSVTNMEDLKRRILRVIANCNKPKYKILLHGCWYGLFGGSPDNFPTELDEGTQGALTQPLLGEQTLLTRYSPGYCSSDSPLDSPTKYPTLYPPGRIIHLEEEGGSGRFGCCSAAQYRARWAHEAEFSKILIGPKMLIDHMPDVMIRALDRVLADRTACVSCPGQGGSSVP

[23] = target: cannabinoid CB1 receptor (Homo sapiens, UniProt P21554); test: [3H]CP55940 radioligand displacement assay CB1; format: binding; settings: at 10 μM
[24] = Plasma protein binding, human; format: in vitro ADME; settings: equilibrium dialysis
[25] = target: T6, ABHD6 (Mus musculus, UniProt Q8R2Y0); test: Gel-based ABPP, mouse brain membrane proteome; format: biochemical
T6 sequence (Q8R2Y0 1-336): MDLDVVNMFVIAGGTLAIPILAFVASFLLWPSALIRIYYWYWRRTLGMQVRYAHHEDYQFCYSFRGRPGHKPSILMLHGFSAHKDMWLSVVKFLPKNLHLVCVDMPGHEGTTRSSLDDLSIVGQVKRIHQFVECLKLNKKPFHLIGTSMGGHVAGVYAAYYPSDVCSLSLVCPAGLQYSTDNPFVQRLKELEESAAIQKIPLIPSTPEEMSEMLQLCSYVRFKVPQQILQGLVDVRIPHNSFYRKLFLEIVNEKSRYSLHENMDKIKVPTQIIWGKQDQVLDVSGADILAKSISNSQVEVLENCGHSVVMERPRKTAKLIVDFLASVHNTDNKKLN

[26] = test system: circulating corticosterone (CORT); test: HPA axis activation: circulating CORT measurements; settings: cotreatment 1 mg kg^−1 i.p. with LEI-401 30 mg kg^−1 i.p.; P = 0.0027
[27] = WT littermates of NAPE-PLD KO animals, mixed 129SvJ-C57BL/6 background

Chain of cannabinoid CB1 receptor (P21554 whole entry): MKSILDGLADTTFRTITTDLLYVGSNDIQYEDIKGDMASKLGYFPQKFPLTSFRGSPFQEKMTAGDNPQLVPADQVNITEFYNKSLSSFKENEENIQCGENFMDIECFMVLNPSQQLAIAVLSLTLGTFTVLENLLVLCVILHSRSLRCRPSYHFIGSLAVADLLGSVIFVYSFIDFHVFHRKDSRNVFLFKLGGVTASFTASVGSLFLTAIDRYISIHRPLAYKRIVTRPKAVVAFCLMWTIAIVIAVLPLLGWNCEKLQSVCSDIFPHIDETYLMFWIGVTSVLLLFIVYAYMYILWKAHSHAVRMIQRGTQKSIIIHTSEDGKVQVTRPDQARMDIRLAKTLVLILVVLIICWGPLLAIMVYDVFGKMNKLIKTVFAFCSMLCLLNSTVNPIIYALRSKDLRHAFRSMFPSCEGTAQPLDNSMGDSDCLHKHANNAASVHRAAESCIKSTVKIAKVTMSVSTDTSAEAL
Chain of protein targets of photoprobe 10 in hNAPE-PLD-FLAG-transfected HEK293T cells (Q6IQ20 whole entry): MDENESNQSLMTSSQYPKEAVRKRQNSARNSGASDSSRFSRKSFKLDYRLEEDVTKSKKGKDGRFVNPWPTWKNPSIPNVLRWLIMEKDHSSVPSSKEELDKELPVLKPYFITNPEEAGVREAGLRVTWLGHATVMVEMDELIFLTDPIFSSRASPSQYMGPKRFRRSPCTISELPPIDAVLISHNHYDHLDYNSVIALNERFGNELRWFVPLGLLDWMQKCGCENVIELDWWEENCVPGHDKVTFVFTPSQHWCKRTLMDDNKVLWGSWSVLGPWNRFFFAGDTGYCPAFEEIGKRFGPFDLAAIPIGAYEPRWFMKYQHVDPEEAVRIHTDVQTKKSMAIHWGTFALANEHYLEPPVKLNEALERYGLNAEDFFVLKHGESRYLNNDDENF
Chain of mouse PGP-transporter (P21447 whole entry): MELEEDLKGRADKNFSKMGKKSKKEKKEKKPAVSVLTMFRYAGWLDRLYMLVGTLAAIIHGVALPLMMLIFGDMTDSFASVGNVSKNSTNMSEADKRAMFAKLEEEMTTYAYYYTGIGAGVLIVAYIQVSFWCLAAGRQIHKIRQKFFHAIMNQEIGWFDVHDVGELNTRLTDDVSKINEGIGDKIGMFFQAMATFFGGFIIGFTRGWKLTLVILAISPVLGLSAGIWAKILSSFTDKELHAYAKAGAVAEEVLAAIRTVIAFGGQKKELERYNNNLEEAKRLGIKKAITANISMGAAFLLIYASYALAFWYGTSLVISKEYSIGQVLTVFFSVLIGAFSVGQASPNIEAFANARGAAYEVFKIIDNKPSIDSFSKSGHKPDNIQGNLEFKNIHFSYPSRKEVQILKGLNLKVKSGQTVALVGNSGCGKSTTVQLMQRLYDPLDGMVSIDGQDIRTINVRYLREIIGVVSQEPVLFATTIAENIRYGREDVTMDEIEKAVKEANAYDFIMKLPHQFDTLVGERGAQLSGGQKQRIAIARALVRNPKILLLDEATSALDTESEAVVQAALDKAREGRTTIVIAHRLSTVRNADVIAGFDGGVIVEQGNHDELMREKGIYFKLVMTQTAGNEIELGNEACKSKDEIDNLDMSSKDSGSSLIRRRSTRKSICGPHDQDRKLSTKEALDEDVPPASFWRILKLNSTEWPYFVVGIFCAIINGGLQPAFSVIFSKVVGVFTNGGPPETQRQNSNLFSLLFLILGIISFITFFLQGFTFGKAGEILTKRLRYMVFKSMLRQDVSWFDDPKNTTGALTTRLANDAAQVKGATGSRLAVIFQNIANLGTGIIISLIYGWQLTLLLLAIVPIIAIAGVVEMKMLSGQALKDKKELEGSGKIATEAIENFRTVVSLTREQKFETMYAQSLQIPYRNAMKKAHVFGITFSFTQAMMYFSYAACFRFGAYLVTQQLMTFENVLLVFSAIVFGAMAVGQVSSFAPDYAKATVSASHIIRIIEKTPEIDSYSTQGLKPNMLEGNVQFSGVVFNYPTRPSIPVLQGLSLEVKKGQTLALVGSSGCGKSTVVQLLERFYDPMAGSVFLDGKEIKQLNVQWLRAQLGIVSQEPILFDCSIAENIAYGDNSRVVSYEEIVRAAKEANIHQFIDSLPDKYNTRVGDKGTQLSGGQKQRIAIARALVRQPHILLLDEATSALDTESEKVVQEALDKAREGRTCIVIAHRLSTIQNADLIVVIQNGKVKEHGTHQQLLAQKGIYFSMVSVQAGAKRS
Chain of cannabinoid CB2 receptor (P34972 whole entry): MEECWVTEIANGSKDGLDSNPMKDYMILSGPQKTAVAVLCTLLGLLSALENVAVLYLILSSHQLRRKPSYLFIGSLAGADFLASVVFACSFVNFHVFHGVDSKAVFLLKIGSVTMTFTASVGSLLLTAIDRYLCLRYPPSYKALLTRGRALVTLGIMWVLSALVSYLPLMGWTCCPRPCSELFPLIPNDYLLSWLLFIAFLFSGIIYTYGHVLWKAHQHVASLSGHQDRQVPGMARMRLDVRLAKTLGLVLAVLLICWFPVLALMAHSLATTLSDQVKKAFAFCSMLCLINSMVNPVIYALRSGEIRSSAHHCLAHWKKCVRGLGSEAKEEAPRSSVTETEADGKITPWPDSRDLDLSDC
Chain of human PGP-transporter (P08183 whole entry): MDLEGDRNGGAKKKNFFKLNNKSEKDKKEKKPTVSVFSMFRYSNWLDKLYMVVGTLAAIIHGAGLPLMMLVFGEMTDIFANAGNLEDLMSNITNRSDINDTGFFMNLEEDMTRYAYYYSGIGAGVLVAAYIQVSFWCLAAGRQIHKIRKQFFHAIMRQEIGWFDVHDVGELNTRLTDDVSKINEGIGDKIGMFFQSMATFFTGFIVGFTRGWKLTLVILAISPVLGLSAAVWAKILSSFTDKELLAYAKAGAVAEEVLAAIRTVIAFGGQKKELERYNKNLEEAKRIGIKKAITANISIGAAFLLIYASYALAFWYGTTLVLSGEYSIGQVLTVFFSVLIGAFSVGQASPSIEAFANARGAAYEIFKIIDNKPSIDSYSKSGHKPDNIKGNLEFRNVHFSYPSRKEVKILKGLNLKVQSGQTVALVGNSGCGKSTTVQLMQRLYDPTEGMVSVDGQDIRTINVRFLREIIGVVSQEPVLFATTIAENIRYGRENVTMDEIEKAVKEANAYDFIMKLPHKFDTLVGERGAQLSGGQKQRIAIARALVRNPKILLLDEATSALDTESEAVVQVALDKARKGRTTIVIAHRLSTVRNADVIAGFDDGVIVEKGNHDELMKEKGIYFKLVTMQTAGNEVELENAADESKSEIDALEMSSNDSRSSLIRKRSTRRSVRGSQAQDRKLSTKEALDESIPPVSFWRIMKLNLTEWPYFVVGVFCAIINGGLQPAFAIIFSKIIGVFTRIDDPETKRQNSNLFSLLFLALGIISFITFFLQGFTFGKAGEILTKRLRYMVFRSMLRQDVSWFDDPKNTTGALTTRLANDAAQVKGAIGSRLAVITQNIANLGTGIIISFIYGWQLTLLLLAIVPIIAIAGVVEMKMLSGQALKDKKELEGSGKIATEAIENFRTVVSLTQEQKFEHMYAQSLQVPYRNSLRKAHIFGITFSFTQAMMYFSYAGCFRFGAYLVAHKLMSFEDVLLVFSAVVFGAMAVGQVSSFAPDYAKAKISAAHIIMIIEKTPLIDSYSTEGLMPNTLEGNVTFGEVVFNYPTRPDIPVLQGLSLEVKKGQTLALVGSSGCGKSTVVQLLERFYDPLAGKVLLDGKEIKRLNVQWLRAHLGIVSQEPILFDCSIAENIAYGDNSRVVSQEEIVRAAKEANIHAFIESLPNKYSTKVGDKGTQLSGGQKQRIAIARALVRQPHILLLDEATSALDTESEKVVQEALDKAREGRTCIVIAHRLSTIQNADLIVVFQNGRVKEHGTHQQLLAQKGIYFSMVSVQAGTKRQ

## O=C(NCC1CC1)c1cc(N2CC[C@H](O)C2)nc(N2CCC[C@@H](c3ccccc3)C2)n1 [LEI-401]
[1]; C57BL/6J mice, 30 mg kg^−1 i.p.
  brain 2-AG levels: not significantly affected
[1]; C57BL/6J mice, 30 mg kg^−1 i.p., 2 h
  brain anandamide level, dose response: significantly reduced anandamide
[1]; NAPE-PLD KO mice, mixed 129SvJ-C57BL/6 background
  brain NAE levels in NAPE-PLD KO mice: did not reduce
[1]; WT and NAPE-PLD KO mice (both genotypes), 60 mg kg^−1
  brain AA levels at high dose: decreased
[1]; WT and NAPE-PLD KO mice, compared to vehicle
  brain NAPE and pNAPE species: No change
[1]; [27]
  brain PEA and OEA levels in WT littermates: significantly reduced
  brain anandamide levels in WT littermates: not decreased
[1]; male C57BL/6J mice, 30 mg kg^−1 i.p. single dose, 1, 2, 4, 8 h, significant at 2 h, vehicle level by 4 h
  brain anandamide level, time course: significant and time-dependent reduction
[2]
  clearance in human hepatocytes: 6.9 μl min^−1 per 10^6 cells
[3]
  inhibition of DAGLα: did not inhibit
[4]
  aqueous solubility: 1.7 µg/mL (≈ 4.03 µM)
[5]
  inhibitory activity, PLA2G4E: No inhibitory activities
[6]
  logD: 3.3
[7]
  mouse protein binding: > 99.8%
[8]; Neuro-2a NAPE-PLD KO cells
  anandamide level: not in NAPE-PLD KO cells
[8]; Neuro-2a WT cells
  anandamide level: twofold reduction
  other saturated, mono- and (ω−6)-polyunsaturated NAE levels: twofold decrease
[8]; Neuro-2a cells
  (ω−3)-polyunsaturated EPEA and DHEA levels: did not respond
[9]
  cell viability: did not show any sign of reduced cell viability
[10]
  inhibitory activity, cannabinoid receptor type 2: No inhibitory activities
[11]
  competition of NAPE-PLD labeling by probe 10: labeling could be prevented
[12]
  clearance in mouse hepatocytes: 28.8 μl min^−1 per 10^6 cells
[13]
  efflux ratio, mouse PGP-transporter: 1.8
[14]
  efflux ratio, human PGP-transporter: 1.7
[15]
  activity of DAGLα/β, MAGL and ABHD6 in the brain: not affected
[16]
  inhibition of MAGL: did not inhibit
[17]; 30 mg kg^−1 i.p. single dose, 210 min before perfusion, P< 0.0001
  c-Fos protein expression in PVN: elevated c-Fos protein expression
[18]
  clearance in mouse microsomes: 42 μl min^−1 mg^−1 protein
[19]
  clearance in human microsomes: 10 μl min^−1 mg^−1 protein
[20]; brain homogenates of NAPE-PLD KO mice
  C17:0-NAE formation from C17:0-NAPE: not from KO mice
[20]; brain homogenates of WT mice
  C17:0-NAE formation from C17:0-NAPE: reduced C17:0-NAE formation
[21]
  inhibitory activity, FAAH: No inhibitory activities
[22]
  inhibition of DAGLβ: did not inhibit
[23]
  inhibitory activity, cannabinoid receptor type 1: No inhibitory activities
[24]
  human protein binding: > 99.8%
[25]
  inhibition of ABHD6: did not inhibit

## NC(=O)c1cccc(-c2cccc(OC(=O)NC3CCCCC3)c2)c1 [URB597]
[26]
  plasma CORT levels in LEI-401-treated mice on cotreatment: not when cotreated with a FAAH inhibitor
[17]; cotreatment 1 mg kg^−1 i.p. with LEI-401 30 mg kg^−1 i.p., P=0.016
  effect on LEI-401-induced c-Fos protein expression in PVN: reversed by cotreatment

## Cc1c(C(=O)NN2CCCCC2)nn(-c2ccc(Cl)cc2Cl)c1-c1ccc(I)cc1 [AM251]
[17]; 3 mg kg^−1 i.p. single dose, 105 min before perfusion, P = 0.011
  c-Fos protein expression in PVN: elevated c-Fos protein expression
